# Experimental data reported in PMC3097502, “Antitrypanosomal and Cytotoxic Activities of 22-Hydroxyclerosterol, a New Sterol from Allexis cauliflora (Violaceae)” (Scientia Pharmaceutica, 2011).
# Legend:
# [1] = system: Trypanosoma brucei brucei bloodstream form (strain 427); test: Antitrypanosomal assay (LILIT, Alamar Blue, 72 h) on bloodstream forms; assay type: cell-based; conditions: for ED50, growth of Trypanosoma brucei (strain 427): bloodstream form, 72 h incubation, Alamar Blue
# Experimental: (§1) Trypanosoma brucei brucei (strain 427) bloodstream forms were cultured in HMI-9 medium containing 10% heat-inactivated. The mammalian fibroblast cell line MRC-5 was grown in DMEM (Gibco) supplemented with 10% heat-inactivated FBS and extra glutamine. Cells were grown at 37 °C in humidified incubators in an atmosphere of 5% CO2 [13].
# (§2) The assay performed, the long incubation low inoculation test (LITIT), was previously described by Räz et al., 1997 [14] with minor modifications by Baltz et al., 1985 [15]. To evaluate the selectivity of the in vitro antitrypanosomal activity, in vitro cytotoxicity tests were also performed. The same general method was used in order to facilitate the comparison.
# (§3) The compounds were initially dissolved in DMSO at a concentration of 20 mg/ml and diluted with the medium. Series of dilution were done in 96-well plates; each dilution was tested in duplicate. Cells in suspension were thereafter added to each well at a density such as, after 72 h of incubation, in control wells the culture reached the end of logarithmic growth phase (T. brucei), or adhesive cells have formed a confluent monocellular film (mammal cells MRC-5). The highest concentration of DMSO was 0.5%. After 72 h of incubation, Alamar Blue, a marker of cell viability, was added in each well and fluorescence was quantified after a total incubation time of 76 h at an excitation wavelength of 530 nm and at an emission wavelength of 590 nm. ED50 values were calculated by linear interpolation. Assays with commercial drugs were also carried out in order to have reference values. All results represent average values obtained in at least three independent experiments, each experiment comprising a duplicate set of tests.
# [2] = system: MRC-5 mammalian cells (fibroblasts); test: Cytotoxicity assay (Alamar Blue, 72 h) on mammalian fibroblasts; assay type: cell-based; conditions: 72 h incubation
# Experimental: as §1, §2, §3
# PGI of T. brucei = PGI of T. brucei (Trypanosoma brucei brucei, UniProt P13377); test: Enzymatic inhibition of glycolytic enzyme PGI (T. brucei); assay type: biochemical; conditions: for Ki’ PGI of T. brucei: binding to enzyme-substrate (F6P/PGI) complex
# PGI of T. brucei, sequence (P13377 whole entry): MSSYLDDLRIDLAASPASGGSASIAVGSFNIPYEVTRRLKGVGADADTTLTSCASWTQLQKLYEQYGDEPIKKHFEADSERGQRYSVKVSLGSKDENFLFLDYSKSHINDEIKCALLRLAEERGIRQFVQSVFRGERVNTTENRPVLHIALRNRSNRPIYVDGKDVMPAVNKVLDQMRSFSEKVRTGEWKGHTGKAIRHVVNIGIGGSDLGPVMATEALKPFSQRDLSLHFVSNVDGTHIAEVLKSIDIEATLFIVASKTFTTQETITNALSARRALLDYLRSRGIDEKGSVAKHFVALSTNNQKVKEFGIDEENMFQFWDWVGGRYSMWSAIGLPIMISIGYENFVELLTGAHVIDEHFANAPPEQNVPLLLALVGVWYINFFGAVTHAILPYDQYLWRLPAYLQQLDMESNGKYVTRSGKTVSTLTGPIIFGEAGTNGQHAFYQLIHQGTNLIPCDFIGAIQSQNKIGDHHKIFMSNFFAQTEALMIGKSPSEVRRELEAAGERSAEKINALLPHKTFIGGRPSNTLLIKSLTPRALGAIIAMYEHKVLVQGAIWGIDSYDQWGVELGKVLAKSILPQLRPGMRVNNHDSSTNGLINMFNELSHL
# GAPDH of T. brucei = GAPDH of T. brucei (Trypanosoma brucei brucei, UniProt P22512); test: Enzymatic inhibition of GAPDH (T. brucei); assay type: biochemical
# GAPDH of T. brucei, sequence (P22512 whole entry): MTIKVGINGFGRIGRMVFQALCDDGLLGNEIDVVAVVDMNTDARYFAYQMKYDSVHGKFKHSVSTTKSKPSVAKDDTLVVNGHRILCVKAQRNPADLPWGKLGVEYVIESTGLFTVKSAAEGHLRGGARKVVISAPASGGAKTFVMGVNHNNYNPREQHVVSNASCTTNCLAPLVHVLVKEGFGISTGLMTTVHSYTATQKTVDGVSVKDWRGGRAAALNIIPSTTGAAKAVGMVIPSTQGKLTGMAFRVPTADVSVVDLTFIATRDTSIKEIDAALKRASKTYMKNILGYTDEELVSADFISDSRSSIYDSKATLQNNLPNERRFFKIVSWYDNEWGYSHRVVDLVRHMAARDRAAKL
# [3] = target: PyK of Leishmania mexicana (Leishmania mexicana, UniProt Q27686); test: Enzymatic inhibition of PyK (L. mexicana); assay type: biochemical
# PyK of Leishmania mexicana, sequence (Q27686 whole entry): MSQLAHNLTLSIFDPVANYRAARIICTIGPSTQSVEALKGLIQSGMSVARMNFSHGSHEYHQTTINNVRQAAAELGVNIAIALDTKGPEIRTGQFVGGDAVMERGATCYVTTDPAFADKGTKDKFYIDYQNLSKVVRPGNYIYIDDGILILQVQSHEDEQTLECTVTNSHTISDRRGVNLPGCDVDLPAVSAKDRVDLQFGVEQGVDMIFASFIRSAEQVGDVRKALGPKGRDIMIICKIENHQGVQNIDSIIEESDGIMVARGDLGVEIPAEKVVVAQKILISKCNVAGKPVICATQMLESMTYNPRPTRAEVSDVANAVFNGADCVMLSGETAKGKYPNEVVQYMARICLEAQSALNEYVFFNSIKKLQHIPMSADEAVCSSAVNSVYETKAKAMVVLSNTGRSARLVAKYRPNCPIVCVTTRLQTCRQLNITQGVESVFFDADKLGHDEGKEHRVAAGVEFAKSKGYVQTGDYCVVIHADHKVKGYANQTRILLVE
# [4] = target: rabbit muscle pyruvate kinase (PyK) (Oryctolagus cuniculus, UniProt P11974); test: Enzymatic inhibition of PyK (rabbit muscle); assay type: biochemical
# rabbit muscle pyruvate kinase (PyK), sequence (P11974 whole entry): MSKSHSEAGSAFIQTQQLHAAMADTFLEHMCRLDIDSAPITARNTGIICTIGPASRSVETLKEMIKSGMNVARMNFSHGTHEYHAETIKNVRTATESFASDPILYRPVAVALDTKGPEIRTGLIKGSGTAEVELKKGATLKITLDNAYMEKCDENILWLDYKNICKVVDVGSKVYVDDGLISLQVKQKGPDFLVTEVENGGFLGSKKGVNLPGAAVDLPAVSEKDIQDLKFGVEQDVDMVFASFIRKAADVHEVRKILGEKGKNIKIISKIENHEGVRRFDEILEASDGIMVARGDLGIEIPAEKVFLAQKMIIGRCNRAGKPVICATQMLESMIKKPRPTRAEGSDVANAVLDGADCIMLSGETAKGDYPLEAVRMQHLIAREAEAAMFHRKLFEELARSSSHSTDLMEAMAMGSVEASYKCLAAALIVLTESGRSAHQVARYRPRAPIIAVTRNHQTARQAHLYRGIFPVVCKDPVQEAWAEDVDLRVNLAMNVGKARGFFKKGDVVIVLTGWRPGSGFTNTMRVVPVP
# PGI Rabbit muscle = target: T1, PGI Rabbit muscle (Oryctolagus cuniculus, UniProt Q9N1E2); test: Enzymatic inhibition of PGI (rabbit muscle); assay type: biochemical; conditions: n.i. = no inhibition observed at 50 μM
# T1 construct: Rabbit muscle; from tissue; host or cells: rabbit muscle
# Text: Tab. 3. Enzymatic inhibition (IC50, μM) | column: PGI / Rabbit muscle
# GAPDH Rabbit muscle = target: T2, GAPDH Rabbit muscle (Oryctolagus cuniculus, UniProt P46406); test: Enzymatic inhibition of GAPDH (rabbit muscle); assay type: biochemical; conditions: n.i. = no inhibition observed at 50 μM
# T2 construct: Rabbit muscle; from tissue; host or cells: rabbit muscle
# T2 sequence (P46406 whole entry): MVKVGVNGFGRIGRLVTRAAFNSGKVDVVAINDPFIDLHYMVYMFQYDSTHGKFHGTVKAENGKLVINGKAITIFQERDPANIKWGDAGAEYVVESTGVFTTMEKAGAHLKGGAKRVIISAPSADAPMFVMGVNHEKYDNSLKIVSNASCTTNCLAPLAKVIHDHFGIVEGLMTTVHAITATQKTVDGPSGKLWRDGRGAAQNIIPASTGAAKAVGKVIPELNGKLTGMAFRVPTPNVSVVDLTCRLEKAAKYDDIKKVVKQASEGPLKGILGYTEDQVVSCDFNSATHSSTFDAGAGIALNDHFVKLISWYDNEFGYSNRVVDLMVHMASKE
# Text: Tab. 3. Enzymatic inhibition (IC50, μM) | column: GAPDH / Rabbit muscle
# [5] = system: Trypanosoma brucei brucei bloodstream form (strain 427); set-up: method as in PMID 17637068; conditions: cited from earlier work
# [6] = system: MRC-5 mammalian cells (fibroblasts); set-up: method as in PMID 17637068; conditions: cited from earlier work
# [7] = n.i. = no inhibition observed at 50 μM
smiles,measurement,setting,value
"C=C(C)[C@@H](CC)CC(O)[C@@H](C)[C@H]1CC[C@H]2[C@@H]3CC=C4C[C@@H](O)CC[C@]4(C)[C@H]3CC[C@]12C (stereo partly drawn) [Compound 1, (3β,24S)-Stigmasta-5,25-diene-3,22-diol]","ED50, growth of Trypanosoma brucei (strain 427)",[1],1.56 µM
same,"fold more potent than compound 2 (ED50, T. brucei brucei growth)",[1]; ratio of ED50 values,86 fold
same,"ED50, Mammalian cells (MRC-5 fibroblasts)",[2],1.12 µM
same,IC50,PGI of T. brucei,30 ± 10 µM
same,affinity for F6P/PGI complex relative to affinity of natural substrate (F6P) for PGI,PGI of T. brucei; kinetic studies,76 fold
same,type of inhibition of PGI of T. brucei,PGI of T. brucei; kinetic studies,uncompetitive inhibitor
same,Ki’ PGI of T. brucei,PGI of T. brucei; kinetic studies,3 ± 1 µM
same,IC50,GAPDH of T. brucei,30 ± 10 µM
same,IC50,[3],30 ± 5 µM
same,Ki,[3],24 ± 5 µM
same,Ki’ PyK of Leishmania mexicana,[3]; kinetic studies,65 ± 10 µM
same,type of inhibition of PyK of Leishmania mexicana,[3]; kinetic studies,mixed inhibitor
same,Ki’ PyK of rabbit muscle,[4]; kinetic studies,26 ± 3 µM
same,type of inhibition of PyK of rabbit muscle,[4]; kinetic studies,uncompetitive inhibitor
same,melting point,,166 to 168 °C
"C=C(C)[C@@H](CC)CC[C@@H](C)[C@H]1CC[C@H]2[C@@H]3CC=C4C[C@@H](O)CC[C@]4(C)[C@H]3CC[C@]12C [Compound 2, (3β,24S)-Stigmasta-5,25-dien-3-ol]","ED50, growth of Trypanosoma brucei (strain 427)",[1],134.34 µM
same,"ED50, Mammalian cells (MRC-5 fibroblasts)",[2],no effect
same,"ED50, Mammalian cells (MRC-5 fibroblasts)",[2]; listed as compound 2,non toxic on mammalian cells
same,IC50,PGI of T. brucei,45 ± 10 µM
same,Ki,PGI of T. brucei,10 ± 2 µM
same,type of inhibition of PGI of T. brucei,PGI of T. brucei; kinetic studies,mixed inhibitor
same,Ki’ PGI of T. brucei,PGI of T. brucei; kinetic studies,68 ± 5 µM
same,IC50 PGI Rabbit muscle,PGI Rabbit muscle,n.i.
same,IC50 GAPDH T. brucei,GAPDH of T. brucei; [7],n.i.
same,IC50 GAPDH Rabbit muscle,GAPDH Rabbit muscle,n.i.
same,IC50 PyK L. mexicana,[3]; [7],n.i.
same,IC50 PyK Rabbit muscle,[4]; [7],n.i.
same,antitrypanosomal activity (known),[5],weak antitrypanosomal activity
same,toxicity to mammalian cells (known),[6],non toxic to mammalian cells
